Test results reported in US20240247080A1, “GLP1/GIP/NPY2 RECEPTOR TRIPLE AGONISTS” (Boehringer Ingelheim International GmbH, priority 2022, published 2024).
pEC50: −log10 of the molar value. Like-named read-outs stand apart in the source and are kept apart here. Starred links: 1 amine or outer side, 2 acyl side, 3 side chain; linkers in the order of their positions; H or OH if unused. Non-standard residues stand in square brackets, D forms with d. Groups on a side chain read outwards from the residue. *: point of attachment. C20 diacid = O=C(O)CCCCCCCCCCCCCCCCCCC(=O)*; C18 diacid = O=C(O)CCCCCCCCCCCCCCCCC(=O)*; γGlu = O=C(O)[C@H](CCC(=O)[*:2])N[*:1]; εLys = N[C@@H](CCCCN[*:1])C(=O)[*:2]; AEEA = NCCOCCOCC(=O)O; Aib = CC(C)(N)C(=O)O

Key:
Format in all cases: cell-based
Conditions in all cases: CreLuc reporter gene assay
hGIPR = molecular target: T1, hGIPR (Homo sapiens, UniProt P48546); assay: hGIPR CreLuc reporter gene assay in 0.5% and 100% plasma
T1 construct: expressed in transfected cells; host or cells: CHO cells carrying a CRE-luciferase reporter gene
T1 sequence (P48546 22-466): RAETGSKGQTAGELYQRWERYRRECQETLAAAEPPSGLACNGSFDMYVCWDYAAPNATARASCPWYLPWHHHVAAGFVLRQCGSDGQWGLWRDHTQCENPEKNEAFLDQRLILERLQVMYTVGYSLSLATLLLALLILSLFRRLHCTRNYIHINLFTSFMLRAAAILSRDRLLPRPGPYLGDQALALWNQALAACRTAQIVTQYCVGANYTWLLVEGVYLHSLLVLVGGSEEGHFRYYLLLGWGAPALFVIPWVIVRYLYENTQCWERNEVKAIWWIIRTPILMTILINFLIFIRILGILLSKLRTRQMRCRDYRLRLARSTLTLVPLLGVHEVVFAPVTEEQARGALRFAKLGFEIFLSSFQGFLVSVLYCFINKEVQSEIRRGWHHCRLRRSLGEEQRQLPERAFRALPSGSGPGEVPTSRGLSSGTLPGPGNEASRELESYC
Outline: (§1)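 HEK cells (GLP-1R, NPY2R) or CHO cells (GIPR) carrying a CRE-luciferase reporter, incubated 4 h at 37 °C with peptides in HBSS/20 mM HEPES pH 7.4 plus 0.5% human plasma, or in 100% plasma. Luminescence read; EC50 from 8-point variable-slope sigmoid fits.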

hGLP1R = molecular target: T2, hGLP1R (Homo sapiens, UniProt P43220); assay: hGLP1R CreLuc reporter gene assay in 0.5% and 100% plasma
T2 construct: expressed in transfected cells; host or cells: HEK-293 cells carrying a CRE-luciferase reporter gene
T2 sequence (P43220 24-463): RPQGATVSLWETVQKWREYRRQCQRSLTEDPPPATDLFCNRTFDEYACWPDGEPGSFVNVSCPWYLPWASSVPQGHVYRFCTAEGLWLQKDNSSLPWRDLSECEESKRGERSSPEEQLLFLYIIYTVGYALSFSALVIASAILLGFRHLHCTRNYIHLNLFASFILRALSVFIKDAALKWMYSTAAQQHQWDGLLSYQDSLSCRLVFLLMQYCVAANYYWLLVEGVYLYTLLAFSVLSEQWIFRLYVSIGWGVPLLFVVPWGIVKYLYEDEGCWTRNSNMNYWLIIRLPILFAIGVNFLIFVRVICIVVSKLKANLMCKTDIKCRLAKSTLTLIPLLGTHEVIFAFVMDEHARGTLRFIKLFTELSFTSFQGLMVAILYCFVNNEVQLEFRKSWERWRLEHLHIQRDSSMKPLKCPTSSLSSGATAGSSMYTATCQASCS
Outline: as §1

hNPY2R = molecular target: T3, hNPY2R (Homo sapiens, UniProt P49146); assay: hNPY2R CreLuc reporter gene assay in 0.5% and 100% plasma
T3 construct: expressed in transfected cells; host or cells: HEK-293 cells carrying a CRE-luciferase reporter gene
T3 sequence (P49146 1-381): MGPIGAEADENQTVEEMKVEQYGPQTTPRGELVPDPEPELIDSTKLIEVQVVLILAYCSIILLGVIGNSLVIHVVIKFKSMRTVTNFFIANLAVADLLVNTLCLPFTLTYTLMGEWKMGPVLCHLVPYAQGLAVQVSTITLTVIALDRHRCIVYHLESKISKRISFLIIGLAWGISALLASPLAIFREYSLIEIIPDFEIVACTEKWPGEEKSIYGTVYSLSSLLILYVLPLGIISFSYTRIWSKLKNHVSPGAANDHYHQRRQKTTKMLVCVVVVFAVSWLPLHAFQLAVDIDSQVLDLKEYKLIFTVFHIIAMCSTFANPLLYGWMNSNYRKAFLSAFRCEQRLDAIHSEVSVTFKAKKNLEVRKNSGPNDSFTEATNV
Outline: as §1

[1] = 0.5% human plasma, read-out: hGIPR 0.5% hP
[2] = 100% human plasma, read-out: hGIPR 100% hP
[3] = 0.5% human plasma, read-out: hGLP1R 0.5% hP
[4] = 0.5% human plasma, read-out: hNPY2R 0.5% hP
[5] = 100% human plasma, read-out: hNPY2R 100% hP
[6] = 100% human plasma, read-out: hGLP1R 100% hP

Row | Compound | pEC50 (hGIPR; [1]) | pEC50 (hGIPR; [2]) | pEC50 (hGLP1R; [3]) | pEC50 (hNPY2R; [4]) | pEC50 (hNPY2R; [5]) | pEC50 (hGLP1R; [6])
1 | H-Y[Aib]EGTFTSDYSI[Aib]LEKQAQ[Aib]AFVEWLIK([εLys-γGlu-γGlu-γGlu-γGlu-γGlu-γGlu-C20 diacid])GGPSSGASLRHY[Aib]NWLTRQRY-NH2 [Compound 184, Y-Aib-E-G-T-F-T-S-D-Y-S-I-Aib-L-E-K-Q-A-Q-Aib-A-F-V-E-W-L-I-K(1,3)-G-G-P-S-S-G-A-S-L-R-H-Y-Aib-N-W-L-T-R-Q-R-Y-NH2.C20DA-gGlu-gGlu-gGlu-gGlu-gGlu-gGlu-eLys(1,2)] | 9.55 | 8.86 | 9.74 | 7.34 | – | –
2 | H-Y[Aib]EGTFTSDYSI[Aib]LEKQAQ[Aib]AFVEWLIK([εLys-γGlu-γGlu-γGlu-γGlu-γGlu-γGlu-C20 diacid])GGPSSGASLRHYINWLTRQRY-NH2 [Compound 106, Y-Aib-E-G-T-F-T-S-D-Y-S-I-Aib-L-E-K-Q-A-Q-Aib-A-F-V-E-W-L-I-K(1,3)-GGPSSGASLRHYINWLTRQRY-NH2.C20DA-gGlu-gGlu-gGlu-gGlu-gGlu-gGlu-eLys(1,2)] | 9.59 | – | 9.85 | 7.69 | – | –
3 | H-Y[Aib]EGTFTSDYSI[Aib]LEKQAQ[Aib]AFVEWLIK([εLys-γGlu-γGlu-γGlu-γGlu-γGlu-γGlu-C20 diacid])GGPSYGASLRHYYNWLTRQRY-NH2 [Compound 232, Y-Aib-E-G-T-F-T-S-D-Y-S-I-Aib-L-E-K-Q-A-Q-Aib-A-F-V-E-W-L-I-K(1,3)-GGPSYGASLRHYYNWLTRQRY-NH2.C20DA-gGlu-gGlu-gGlu-gGlu-gGlu-gGlu-eLys(1,2)] | 9.72 | 8.79 | 9.68 | 7.82 | 7.43 | –
4 | H-Y[Aib]EGTFTSDYSI[Aib]LEKQAQ[Aib]AFVEWLIK([εLys-γGlu-γGlu-γGlu-γGlu-γGlu-γGlu-C20 diacid])GGPSSGASLR[Aib]YYNWLTRQRY-NH2 [Compound 182, Y-Aib-E-G-T-F-T-S-D-Y-S-I-Aib-L-E-K-Q-A-Q-Aib-A-F-V-E-W-L-I-K(1,3)-G-G-P-S-S-G-A-S-L-R-Aib-Y-Y-N-W-L-T-R-Q-R-Y-NH2.C20DA-gGlu-gGlu-gGlu-gGlu-gGlu-gGlu-eLys(1,2)] | 9.68 | 8.86 | 9.89 | 7.15 | – | –
5 | H-Y[Aib]EGTFTSDYSI[Aib]LEKQAQ[Aib]AFVQWLIK([εLys-γGlu-γGlu-γGlu-γGlu-γGlu-C18 diacid])GGPSEGASLRHYYNWLTRQRY-NH2 [Compound 267, Y-Aib-E-G-T-F-T-S-D-Y-S-I-Aib-L-E-K-Q-A-Q-Aib-A-F-V-Q-W-L-I-K(1,3)-GGPSEGASLRHYYNWLTRQRY-NH2.C18DA-gGlu-gGlu-gGlu-gGlu-gGlu-eLys(1,2)] | 9.92 | 8.93 | 10.15 | – | 7.56 | –
6 | CC[C@H](C)[C@H](NC(=O)[C@H](CC(C)C)NC(=O)[C@H](Cc1c[nH]c2ccccc12)NC(=O)[C@H](CCC(=O)O)NC(=O)[C@@H](NC(=O)[C@H](Cc1ccccc1)NC(=O)[C@H](C)NC(=O)C(C)(C)NC(=O)[C@H](CCC(N)=O)NC(=O)[C@H](C)NC(=O)[C@H](CCC(N)=O)NC(=O)[C@H](CCCCN)NC(=O)[C@H](CCC(=O)O)NC(=O)[C@H](CC(C)C)NC(=O)C(C)(C)NC(=O)[C@@H](NC(=O)[C@H](CO)NC(=O)[C@H](Cc1ccc(O)cc1)NC(=O)[C@H](CC(=O)O)NC(=O)[C@H](CO)NC(=O)[C@@H](NC(=O)[C@H](Cc1ccccc1)NC(=O)[C@@H](NC(=O)CNC(=O)[C@H](CCC(=O)O)NC(=O)C(C)(C)NC(=O)[C@@H](N)Cc1ccc(O)cc1)[C@@H](C)O)[C@@H](C)O)[C@@H](C)CC)C(C)C)C(=O)N[C@@H](CCCCNC(=O)[C@@H](N)CCCCNC(=O)CC[C@H](NC(=O)CC[C@H](NC(=O)CC[C@H](NC(=O)CC[C@H](NC(=O)CC[C@H](NC(=O)CC[C@H](NC(=O)CCCCCCCCCCCCCCCCCCC(=O)O)C(=O)O)C(=O)O)C(=O)O)C(=O)O)C(=O)O)C(=O)O)C(=O)NCC(=O)NCC(=O)N1CCC[C@H]1C(=O)N[C@@H](CO)C(=O)N[C@@H](CO)C(=O)NCC(=O)N[C@@H](C)C(=O)N[C@@H](CO)C(=O)N[C@H](CC(C)C)C(=O)N[C@@H](CCCNC(=N)N)C(=O)N[C@H](Cc1c[nH]cn1)C(=O)N[C@@H](Cc1ccc(O)cc1)C(=O)N[C@@H](Cc1ccc(O)cc1)C(=O)N[C@@H](CC(N)=O)C(=O)N[C@@H](Cc1c[nH]c2ccccc12)C(=O)N[C@@H](CC(C)C)C(=O)N[C@H](C(=O)N[C@H](CCCNC(=N)N)C(=O)N[C@@H](CCC(N)=O)C(=O)N[C@@H](CCCNC(=N)N)C(=O)N[C@H](Cc1ccc(O)cc1)C(N)=O)[C@@H](C)O [Compound 5, Y-Aib-E-G-T-F-T-S-D-Y-S-I-Aib-L-E-K-Q-A-Q-Aib-A-F-V-E-W-L-I-K(1,3)-G-G-P-S-S-G-A-S-DLeu-R-DHis-Y-Y-N-W-L-T-DArg-Q-R-DTyr-NH2.C20DA-gGlu-gGlu-gGlu-gGlu-gGlu-gGlu-eLys(1,2)] | 9.77 | 8.97 | 9.96 | < 7.00 | < 6.00 | –
7 | H-Y[Aib]EGTFTSDYSI[Aib]LEKQAQ[Aib]EFVEWLIK([AEEA-AEEA-γGlu-C18 diacid])GGPSEGASLRHYYNWLTRQRY-NH2 [Compound 282, Y-Aib-E-G-T-F-T-S-D-Y-S-I-Aib-L-E-K-Q-A-Q-Aib-E-F-V-E-W-L-I-K(1,3)-GGPSEGASLRHYYNWLTRQRY-NH2.C18DA-gGlu-OEG-OEG(1,2)] | 9.77 | 8.99 | 9.29 | 7.76 | – | –
8 | H-Y[Aib]EGTFTSDYSI[Aib]LEKQAQ[Aib]AFVEWLIK([γGlu-γGlu-γGlu-γGlu-γGlu-C18 diacid])GGPSSGASLRHYYNWLTRQRY-NH2 [Compound 253, Y-Aib-E-G-T-F-T-S-D-Y-S-I-Aib-L-E-K-Q-A-Q-Aib-A-F-V-E-W-L-I-K(1,3)-GGPSSGASLRHYYNWLTRQRY-NH2.C18DA-gGlu-gGlu-gGlu-gGlu-gGlu(1,2)] | 9.62 | 9.19 | 10.10 | 7.87 | – | 9.13
9 | H-Y[Aib]EGTFTSDYSI[Aib]LEEEAQ[Aib]AFVEWLIK([εLys-γGlu-γGlu-γGlu-γGlu-γGlu-γGlu-C20 diacid])GGPSSGASLRHYYNWLTRQRY-NH2 [Compound 66, Y-Aib-E-G-T-F-T-S-D-Y-S-I-Aib-L-E-E-E-A-Q-Aib-A-F-V-E-W-L-I-K(1,3)-GGPSSGASLRHYYNWLTRQRY-NH2.C20DA-gGlu-gGlu-gGlu-gGlu-gGlu-gGlu-eLys(1,2)] | 9.19 | – | 9.62 | 7.73 | – | 7.94
10 | H-Y[Aib]EGTFTSDYSI[Aib]LEKQAE[Aib]AFVQWLIK([εLys-γGlu-γGlu-γGlu-γGlu-γGlu-C20 diacid])GGPSEGASLRHYYNWLTRQRY-NH2 [Compound 200, Y-Aib-E-G-T-F-T-S-D-Y-S-I-Aib-L-E-K-Q-A-E-Aib-A-F-V-Q-W-L-I-K(1,3)-GGPSEGASLRHYYNWLTRQRY-NH2.C20DA-gGlu-gGlu-gGlu-gGlu-gGlu-eLys(1,2)] | 9.43 | – | 9.32 | 7.92 | – | –
11 | H-Y[Aib]EGTFTSDYSI[Aib]LEK(Ac)QAQ[Aib]AFVEWLIK([εLys-γGlu-γGlu-γGlu-γGlu-γGlu-γGlu-C20 diacid])GGPSSGASLRHYYNWLTRQRY-NH2 [Compound 192, Y-Aib-E-G-T-F-T-S-D-Y-S-I-Aib-L-E-KAc-Q-A-Q-Aib-A-F-V-E-W-L-I-K(1,3)-GGPSSGASLRHYYNWLTRQRY-NH2.C20DA-gGlu-gGlu-gGlu-gGlu-gGlu-glu-eLys(1,2)] | 9.55 | – | 9.89 | 7.69 | – | –
